Measured values reported in patent US20240166641A1, “HETEROCYCLES AND USES THEREOF” (Kumquat Biosciences Inc., priority 2021, published 2024).
Each block holds one compound with its values, some of them ahead of it.

Legend:
mouse C57BL/6 T cells = assay: pSTAT1 signaling in IFNα-stimulated T cells, flow cytometry; type: cell-based; details: T-cell, 10 uM compound, T cells stimulated for 5 hours by IFNα, read-out: % pSTAT1 in cells treated with subject compounds relative to negative control (DMSO)
Protocol: IFNα signaling in mouse C57BL/6 T cells promotes activation of multiple signaling pathways associated with antitumor responses. A key target of this signaling is phosphorylation of the transcription factor STAT1. […] T cells are stimulated for 5 hours by IFNα in the presence or absence of exemplified compounds disclosed herein (e.g., PTPN2 inhibitors) and stained intracellularly with antibodies for phosphorylated STAT1 and then analyzed by flow cytometry. Enhancement of phosphorylation of STAT1 is read out as a percentage over the DMSO control.

OT-1 cells = assay: T-cell activation: intracellular production of IFNγ and TNFα in exhausted OT-1 cells; type: cell-based; details: 10 uM compound, OT-1 cells restimulated with 1 μM OVA, read-out: % TNFa + /IFNg + production in compound-treated cells (uM compound) relative to negative control (DMSO)
Protocol: 1*10^6 OT-1 cells are seeded in a 24well in a volume of 1 mL of RPMI/10% FCS, and activated with 10 nM OVA protein for 48 h. Cells are then split 1:4 into 96well plates after two washes in warm media. To induce exhaustion, cells are then expanded for 3 days in the presence of vehicle control or a compound described herein (e.g., PTPN2 inhibitor) various concentrations, as well as 5 ng/ml IL-7 and 5 ng/ml IL-15, with the addition of fresh OVA on each day. After this point, cells are treated with Brefeldin A and restimulated with 1 μM of OVA for 4-6h, and cells are stained to assess production of IFNγ and TNFα intracellularly by flow cytometry. The results are shown as increase in percentage production of IFNγ and TNFα in cells treated with an exemplified compound at 10 uM, relative to a negative control (DMSO) of cells without being treated with the compound but merely DMSO (a solvent in which exemplified compounds are dissolved). See Table 10 below summarizes percentage increase in IFNγ and TNFα intracellular production in cells treated with an exemplified compound (at 10 uM) or without it, relative to a negative control (DMSO).

PTPN2 = target: T1, PTPN2 (Homo sapiens, UniProt P17706); assay: Phosphatase activity assay (Bio-Biochem-DiFMUP), PTPN2; type: biochemical; details: DiFMUP substrate, room temperature
T1 sequence (P17706 1-415): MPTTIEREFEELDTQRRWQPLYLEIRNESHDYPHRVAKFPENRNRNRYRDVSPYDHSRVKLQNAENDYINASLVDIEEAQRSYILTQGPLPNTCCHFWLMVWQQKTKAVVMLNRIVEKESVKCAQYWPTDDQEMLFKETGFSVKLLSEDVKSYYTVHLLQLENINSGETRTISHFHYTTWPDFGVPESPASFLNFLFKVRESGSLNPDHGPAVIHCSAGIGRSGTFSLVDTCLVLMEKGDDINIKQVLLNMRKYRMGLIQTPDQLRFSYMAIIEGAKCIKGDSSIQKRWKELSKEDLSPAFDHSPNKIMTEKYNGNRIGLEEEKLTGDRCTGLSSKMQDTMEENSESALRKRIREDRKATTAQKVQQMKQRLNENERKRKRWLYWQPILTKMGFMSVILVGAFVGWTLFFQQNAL
Summary of the method: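 Buffer was 50 mM Bis-Tris pH 6.3, 2 mM EDTA, 5 mM DMH, with 10 μM FDP or DiFMUP substrate, enzyme added last, at room temperature. Fluorescent product was read continuously for 15–30 min (DiFMU ex 360/em 450 nm; FMP ex 440/em 530 nm). Initial rates against 10-point inhibitor series were fitted with a 4-parameter equation to give IC50.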

Structure (SMILES): CNc1ccc2cc(O)c(N3CC(=O)NS3(=O)=O)c(F)c2n1 [Compound 153]
activity at 10 µM (mouse C57BL/6 T cells): 249% | activity at 10 µM (OT-1 cells): 132% | IC50 (PTPN2): ≤ 1000 nM

Structure (SMILES): CN(C)CCOc1ccc2cc(O)c(N3CC(=O)NS3(=O)=O)c(F)c2n1 [Compound 178]
activity at 10 µM (mouse C57BL/6 T cells): 172% | activity at 10 µM (OT-1 cells): 168% | IC50 (PTPN2): ≤ 1000 nM

Structure (SMILES): O=C1CN(c2c(O)cc3ccc(OCC4CCS(=O)(=O)CC4)nc3c2F)S(=O)(=O)N1 [Compound 143]
activity at 10 µM (mouse C57BL/6 T cells): 161% | activity at 10 µM (OT-1 cells): 174% | IC50 (PTPN2): ≤ 1000 nM

More lines, main results first:

IC50 (PTPN2): ≤ 1000 nM
Structure (SMILES): CC(C)CCOc1ccc2cc(O)c(N3CC(=O)NS3(=O)=O)c(F)c2n1 [Compound 135, 5-(8-fluoro-6-hydroxy-2-(isopentyloxy)quinolin-7-yl)-1,2,5-thiadiazolidin-3-one 1,1-dioxide]
activity at 10 µM (mouse C57BL/6 T cells): 255% | activity at 10 µM (OT-1 cells): 504%

IC50 (PTPN2): ≤ 1000 nM
Structure (SMILES): CC(C)CCNc1ccc2cc(O)c(N3CC(=O)NS3(=O)=O)c(F)c2n1 [Compound 117]
activity at 10 µM (mouse C57BL/6 T cells): 210% | activity at 10 µM (OT-1 cells): 236%

IC50 (PTPN2): ≤ 1000 nM
Structure (SMILES): COc1ccc2cc(O)c(N3CC(=O)NS3(=O)=O)c(F)c2n1 [Compound 154]
activity at 10 µM (mouse C57BL/6 T cells): 303% | activity at 10 µM (OT-1 cells): 152%

IC50 (PTPN2): ≤ 1000 nM
Structure (SMILES): CN1CCCC(COc2ccc3cc(O)c(N4CC(=O)NS4(=O)=O)c(F)c3n2)C1 (stereo not drawn) [Compound 176]
activity at 10 µM (mouse C57BL/6 T cells): 229% | activity at 10 µM (OT-1 cells): 193%
